Results: patent US20100016275A1, “NOVEL COMPOUND 395” (priority 2008, published 2010)

Key:
human hepatocytes = experiment: Human hepatic intrinsic clearance (CLint) assay in human hepatocytes; assay type: in vitro ADME; details: human hepatocytes, protein free suspension buffer, pH 7.4, 37° C.
From the text: The hepatic metabolic component of human clearance is predicted from scaled in vitro intrinsic clearance (CLint) data from human hepatocytes (see Chem Biol Interact. 2007, 168(1), 2-15) and from the extent of human blood binding, primarily due to plasma protein binding. The well stirred model of the liver is a model for predicting blood clearance in the liver from intrinsic clearance (CLint) determined using hepatocytes. (see Drug Metab Dispos. 2005, 33(9), 1304-11) The model is usually written as:
Human Hepatic Intrinsic Clearance (CLint) Assay
For the majority of drugs, a large component of their plasma clearance is contributed by hepatic metabolism. Intrinsic clearance (CLint) is a measure of the potential of a compound to undergo metabolism and can be related to hepatic clearance in vivo from a consideration of plasma protein binding and liver blood flow. Therefore, CLint may be used as an index of the relative metabolic stability of compounds within a project and compared with other external probe substrates. Furthermore, the measurement of CLint in vitro within a research project, where hepatic metabolic clearance is known to be an issue, may be a useful means of understanding the different pharmacokinetic behaviour of the compounds in vivo.
This following description outlines a method for estimating intrinsic clearance (CLint) from human hepatocyte incubations using suspension buffer containing no HSA (human serum albumin) and maintaining physiological conditions of pH 7.4.
Hepatocytes were prepared by a two-step in situ collagenase perfusion method of a portion of the human liver, suspended in protein free buffer (see below) and stored on ice, prior to incubation.
This method is based on the procedure of Seglen (Preparation of rat liver cells. I. Effect of Ca^2+ on enzymatic dispersion of isolated, perfused liver. Exptl. Cell Res., 1972, 74, p450 and preparation of isolated rat liver cells. Methods Cell Biol., 1976, 13, p 29) which itself was developed from the one step procedure of Berry and Friend (High-yield preparation of isolated rat liver parenchymal cells. J. Cell Biol., 1969, 43, p 506).
Suspension medium: 2.34 g Na HEPES, 2.0 g HSA fraction V, 0.4 g D-fructose, DMEM (1 L powder equivalent, Sigma; w/1 g.1^−1 glucose, w/Na pyruvate, w/o NaHCO3, w/o phenol red), made up to 1 L with Milli-Q water, pH to 7.4 with 1 M HCl. (Protein free suspension buffer is made omitting the 2.0 g HSA fraction V)
The capsule of a liver which has been perfused with digestion medium was cut open and the cells gently teased out into the medium. The cells were then passed through a mesh (approximately 250 μM) into a beaker containing 50 ml suspension medium. The mesh was rinsed through into the beaker with further suspension buffer to a final volume of 100 ml. The suspension was divided between two plastic 50 mL centrifuge tubes (pre-cooled on ice) and centrifuged at 50×g for 2 min at 4° C. The supernatants were decanted and the pellets re-suspended in protein free suspension buffer to the original volume. The centrifugation step was repeated and each pellet re-suspended in approximately 10 ml protein free suspension buffer. The suspensions were combined and the volume made up to 50 mL with protein free suspension buffer.
An aliquot of cell suspension (0.2 mL) was diluted with 0.2 ml protein free suspension buffer. To the diluted cells was added 0.2 mL trypan blue solution (0.4% w/v) followed by gentle mixing. After 1 min, a pasteur pipette was used to withdraw a sample and fill an Improved Neubauer Counting Chamber by capillary action. The cells were then counted (central square only) using an inverted microscope, viable cells being able to exclude the dye and non-viable cells being stained. The percentage of viable cells in the preparation was calculated thus: […]

| melting point | Human hepatocyte Intrinsic-clearance assay CLint (human hepatocytes) | Structure (SMILES) |
| --- | --- | --- |
| 116 to 116.5 °C | – | C[C@@H](Nc1cc(NS(=O)(=O)N2CCC2)nc(SCc2cccc(F)c2F)n1)[C@@H](O)CO [Example 1, N-(2-[(2,3-difluorobenzyl)thio]-6-{[(1R,2R)-2,3-dihydroxy-1-methylpropyl]amino}pyrimidin-4-yl)azetidine-1-sulfonamide] |
| – | 17 μL/min/10^6 cells | Cc1ccc(CSc2nc(N[C@H](C)CO)cc(NS(=O)(=O)N3CCC3)n2)c(F)c1C [Example 42] |
